pEC50: −log10 of the molar value. Active and inactive are the calls of the source. The rule behind the calls is not given here.

One series concerns the target T1, Bile acid receptor (Homo sapiens, UniProt Q96RI1).
T1 sequence (Q96RI1 whole entry): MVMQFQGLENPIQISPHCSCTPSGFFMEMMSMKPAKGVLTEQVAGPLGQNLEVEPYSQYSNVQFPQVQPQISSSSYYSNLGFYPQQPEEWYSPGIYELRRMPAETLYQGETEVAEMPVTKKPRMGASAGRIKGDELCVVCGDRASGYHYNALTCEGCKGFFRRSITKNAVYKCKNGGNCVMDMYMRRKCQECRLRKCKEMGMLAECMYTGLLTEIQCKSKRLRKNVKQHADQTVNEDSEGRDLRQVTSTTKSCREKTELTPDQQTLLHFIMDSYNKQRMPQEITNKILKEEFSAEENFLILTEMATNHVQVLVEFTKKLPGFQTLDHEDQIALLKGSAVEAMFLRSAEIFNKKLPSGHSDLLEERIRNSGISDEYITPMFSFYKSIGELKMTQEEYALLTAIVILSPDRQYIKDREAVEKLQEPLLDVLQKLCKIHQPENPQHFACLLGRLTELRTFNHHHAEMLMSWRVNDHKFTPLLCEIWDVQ
In words: Partial agonist activity at human FXR expressed in Huh-7 cells in presence of CDCA by luciferase reporter gene assay. In kind it is cell-based. For orientation: Reporter assays use an easily measured gene product as a stand-in for the process of interest.

In series [1] the target is T2, Bile acid receptor (Homo sapiens) (UniProt Q96RI1).
T2 sequence (whole entry): T1 sequence (Q96RI1 whole entry)
In words: Partial agonist activity at human FXR expressed in Huh-7 cells in presence of CDCA by luciferase reporter gene assay relative to GW4064. It counts as cell-based.

Series [2] deals with T2, Bile acid receptor (Homo sapiens). In words: Partial agonist activity at FXR in human Huh-7 cells assessed as reduction in CDCA-induced BSEP gene expression at 10 uM by RT-PCR analysis. In kind it is cell-based. The conditions noted are these: filed as partial agonist.
For series [3] the target is unchanged. In words: Partial agonist activity at FXR in human Huh-7 cells assessed as reduction in CDCA-induced OSTalpha gene expression at 10 uM by RT-PCR analysis. It counts as cell-based. The conditions noted are these: filed as partial agonist.
For series [4] the target is unchanged. In words: Partial agonist activity at FXR in human Huh-7 cells assessed as reduction in CDCA-induced FAS gene expression at 10 uM by RT-PCR analysis. Conditions: filed as partial agonist. In kind it is cell-based.
Series [5] shares this target. As to the kind of experiment: Partial agonist activity at FXR in human Huh-7 cells assessed as reduction in CDCA-induced SREBP gene expression at 10 uM by RT-PCR analysis. It counts as cell-based. The conditions noted are these: filed as partial agonist.
Series [6] has the same target. In words: Partial agonist activity at FXR in human Huh-7 cells assessed as reduction in CDCA-induced SHP gene expression at 10 uM by RT-PCR analysis. In kind it is cell-based. Conditions: filed as partial agonist.
The target is the same in series [7]. In words: Activation of FXR (unknown origin) at 10 uM. The conditions noted are these: filed as activator.
In series [8] the target is T3, Peroxisome proliferator-activated receptor delta (Homo sapiens) (UniProt Q03181).
T3 sequence (whole entry): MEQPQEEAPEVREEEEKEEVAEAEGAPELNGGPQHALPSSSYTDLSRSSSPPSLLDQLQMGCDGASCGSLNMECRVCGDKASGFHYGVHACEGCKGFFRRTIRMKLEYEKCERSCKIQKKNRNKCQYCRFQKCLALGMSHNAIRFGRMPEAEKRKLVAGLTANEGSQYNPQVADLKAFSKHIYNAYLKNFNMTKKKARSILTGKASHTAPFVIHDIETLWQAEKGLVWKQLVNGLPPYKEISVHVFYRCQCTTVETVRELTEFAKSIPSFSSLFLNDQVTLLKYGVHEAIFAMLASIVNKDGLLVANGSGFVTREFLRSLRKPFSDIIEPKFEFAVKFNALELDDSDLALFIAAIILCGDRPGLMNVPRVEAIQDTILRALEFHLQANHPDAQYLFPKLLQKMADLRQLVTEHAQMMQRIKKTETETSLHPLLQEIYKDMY
In words: Activation of PPARdelta (unknown origin) at 10 uM.

In series [9] the target is T4, Oxysterols receptor LXR-beta (Homo sapiens) (UniProt P55055).
T4 sequence (whole entry): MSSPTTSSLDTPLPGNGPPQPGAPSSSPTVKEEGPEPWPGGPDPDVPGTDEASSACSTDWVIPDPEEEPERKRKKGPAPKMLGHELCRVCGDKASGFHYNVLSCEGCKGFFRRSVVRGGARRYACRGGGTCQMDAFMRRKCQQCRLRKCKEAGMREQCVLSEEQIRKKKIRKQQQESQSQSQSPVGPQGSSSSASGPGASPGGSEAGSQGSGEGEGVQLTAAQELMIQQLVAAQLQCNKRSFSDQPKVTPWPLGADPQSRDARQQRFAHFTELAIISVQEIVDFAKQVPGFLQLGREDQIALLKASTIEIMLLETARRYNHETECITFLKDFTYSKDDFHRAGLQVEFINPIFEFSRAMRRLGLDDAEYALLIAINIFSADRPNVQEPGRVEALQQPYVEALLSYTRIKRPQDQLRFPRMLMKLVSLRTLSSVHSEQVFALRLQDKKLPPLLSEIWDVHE
In words: Activation of LXR beta (unknown origin) at 10 uM.

Series [10] concerns the target T5, Vitamin D3 receptor (Homo sapiens) (UniProt P11473).
T5 sequence (whole entry): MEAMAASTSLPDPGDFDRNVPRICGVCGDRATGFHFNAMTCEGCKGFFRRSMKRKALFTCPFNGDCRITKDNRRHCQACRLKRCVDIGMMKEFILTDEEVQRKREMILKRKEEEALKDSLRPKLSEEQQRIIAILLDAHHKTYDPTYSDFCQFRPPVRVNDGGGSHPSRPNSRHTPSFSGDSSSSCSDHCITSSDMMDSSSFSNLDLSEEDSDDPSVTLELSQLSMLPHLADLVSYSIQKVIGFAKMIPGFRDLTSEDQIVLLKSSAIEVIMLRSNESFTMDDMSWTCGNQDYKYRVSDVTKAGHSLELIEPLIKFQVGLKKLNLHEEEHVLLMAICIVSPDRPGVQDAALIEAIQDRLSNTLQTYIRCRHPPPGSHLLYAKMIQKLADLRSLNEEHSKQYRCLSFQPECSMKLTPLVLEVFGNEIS
As to the kind of experiment: Activation of VDR (unknown origin) at 10 uM.

Series [11] has as its target T6, Retinoic acid receptor alpha (Homo sapiens) (UniProt P10276).
T6 sequence (whole entry): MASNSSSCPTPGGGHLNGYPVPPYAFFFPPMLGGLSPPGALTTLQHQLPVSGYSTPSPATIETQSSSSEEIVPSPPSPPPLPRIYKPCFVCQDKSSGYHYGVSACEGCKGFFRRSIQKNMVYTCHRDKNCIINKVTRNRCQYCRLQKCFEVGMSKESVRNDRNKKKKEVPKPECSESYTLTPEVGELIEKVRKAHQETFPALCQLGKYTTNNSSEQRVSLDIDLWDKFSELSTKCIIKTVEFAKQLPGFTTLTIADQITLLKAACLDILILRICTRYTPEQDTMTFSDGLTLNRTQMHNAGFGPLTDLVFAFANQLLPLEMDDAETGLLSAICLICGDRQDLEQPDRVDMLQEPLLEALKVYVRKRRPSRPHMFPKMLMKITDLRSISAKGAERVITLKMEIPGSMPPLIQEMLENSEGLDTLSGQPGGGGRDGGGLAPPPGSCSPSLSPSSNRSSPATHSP
In words: Activation of RARalpha (unknown origin) at 10 uM.

Series [12] in a line: Metabolic stability in mouse liver microsomes assessed as half life. It counts as ADME, Microsome. (In general: Liver microsomes are a subcellular fraction often used to study metabolism.)

With `CC(C)(C)c1ccc(-n2cnc3c(NC(=O)Cc4ccc(C(=O)O)cc4)cccc32)cc1`, at Bile acid receptor, the pEC50 (usually −log10 of the EC50, conventionally taken in molar units) is 5.72. The Activity in series [1] amounted to 35.6%. Besides, the result in series [2], in [3], in series [4], in [5], in [6] and in series [7] was Active. Moreover, the outcome in series [8], in [9], in series [10] and in [11] was inactive. Further, in series [12], the half-life (in general, how long it takes for the measured level to halve) was 57 min.

The values are drawn from ChEMBL document CHEMBL5257079, “Discovery of FXR/PPARγ dual partial agonist” (Bioorg Med Chem, 2023).
